Results taken from patent US9340590B2 (priority 2011, dated 2016).
Read-outs that look alike come from different tables or passages of the source. Positions of bridges follow the written chain, without caps; N, C: chain ends. Non-standard residues stand in square brackets, D forms with d. Residues, ends and D or L forms follow the SMILES beside them. Arg(Me2s) = CN=C(NC)NCCC[C@H](N)C(=O)O

Assays:
Assay in all cases: cell-based
hNav1.3 [1] = molecular target: T1, hNav1.3 (Homo sapiens, UniProt Q9NY46); format: cell-based; conditions: Nav1.3 Use IC50
hNav1.7 [2] = molecular target: T2, hNav1.7 (Homo sapiens, UniProt Q15858); conditions: Nav1.7 Use IC50
hNav1.3 [3] = molecular target: T1, hNav1.3; conditions: IonWorks Quattro, use-dependent block, hNav1.3; read-out: IWQ Use Nav1.3
hNav1.5 [4] = molecular target: T3, hNav1.5 (Homo sapiens, UniProt Q14524)
hNav1.7 [5] = molecular target: T2, hNav1.7; format: cell-based; conditions: IonWorks Quattro, use-dependent block, hNav1.7; read-out: IWQ Use Nav1.7
hNav1.5 [6] = molecular target: T3, hNav1.5; conditions: IonWorks Quattro, use-dependent block, hNav1.5; read-out: IWQ Use Nav1.5

T1 sequence (Q9NY46 whole entry, looked up): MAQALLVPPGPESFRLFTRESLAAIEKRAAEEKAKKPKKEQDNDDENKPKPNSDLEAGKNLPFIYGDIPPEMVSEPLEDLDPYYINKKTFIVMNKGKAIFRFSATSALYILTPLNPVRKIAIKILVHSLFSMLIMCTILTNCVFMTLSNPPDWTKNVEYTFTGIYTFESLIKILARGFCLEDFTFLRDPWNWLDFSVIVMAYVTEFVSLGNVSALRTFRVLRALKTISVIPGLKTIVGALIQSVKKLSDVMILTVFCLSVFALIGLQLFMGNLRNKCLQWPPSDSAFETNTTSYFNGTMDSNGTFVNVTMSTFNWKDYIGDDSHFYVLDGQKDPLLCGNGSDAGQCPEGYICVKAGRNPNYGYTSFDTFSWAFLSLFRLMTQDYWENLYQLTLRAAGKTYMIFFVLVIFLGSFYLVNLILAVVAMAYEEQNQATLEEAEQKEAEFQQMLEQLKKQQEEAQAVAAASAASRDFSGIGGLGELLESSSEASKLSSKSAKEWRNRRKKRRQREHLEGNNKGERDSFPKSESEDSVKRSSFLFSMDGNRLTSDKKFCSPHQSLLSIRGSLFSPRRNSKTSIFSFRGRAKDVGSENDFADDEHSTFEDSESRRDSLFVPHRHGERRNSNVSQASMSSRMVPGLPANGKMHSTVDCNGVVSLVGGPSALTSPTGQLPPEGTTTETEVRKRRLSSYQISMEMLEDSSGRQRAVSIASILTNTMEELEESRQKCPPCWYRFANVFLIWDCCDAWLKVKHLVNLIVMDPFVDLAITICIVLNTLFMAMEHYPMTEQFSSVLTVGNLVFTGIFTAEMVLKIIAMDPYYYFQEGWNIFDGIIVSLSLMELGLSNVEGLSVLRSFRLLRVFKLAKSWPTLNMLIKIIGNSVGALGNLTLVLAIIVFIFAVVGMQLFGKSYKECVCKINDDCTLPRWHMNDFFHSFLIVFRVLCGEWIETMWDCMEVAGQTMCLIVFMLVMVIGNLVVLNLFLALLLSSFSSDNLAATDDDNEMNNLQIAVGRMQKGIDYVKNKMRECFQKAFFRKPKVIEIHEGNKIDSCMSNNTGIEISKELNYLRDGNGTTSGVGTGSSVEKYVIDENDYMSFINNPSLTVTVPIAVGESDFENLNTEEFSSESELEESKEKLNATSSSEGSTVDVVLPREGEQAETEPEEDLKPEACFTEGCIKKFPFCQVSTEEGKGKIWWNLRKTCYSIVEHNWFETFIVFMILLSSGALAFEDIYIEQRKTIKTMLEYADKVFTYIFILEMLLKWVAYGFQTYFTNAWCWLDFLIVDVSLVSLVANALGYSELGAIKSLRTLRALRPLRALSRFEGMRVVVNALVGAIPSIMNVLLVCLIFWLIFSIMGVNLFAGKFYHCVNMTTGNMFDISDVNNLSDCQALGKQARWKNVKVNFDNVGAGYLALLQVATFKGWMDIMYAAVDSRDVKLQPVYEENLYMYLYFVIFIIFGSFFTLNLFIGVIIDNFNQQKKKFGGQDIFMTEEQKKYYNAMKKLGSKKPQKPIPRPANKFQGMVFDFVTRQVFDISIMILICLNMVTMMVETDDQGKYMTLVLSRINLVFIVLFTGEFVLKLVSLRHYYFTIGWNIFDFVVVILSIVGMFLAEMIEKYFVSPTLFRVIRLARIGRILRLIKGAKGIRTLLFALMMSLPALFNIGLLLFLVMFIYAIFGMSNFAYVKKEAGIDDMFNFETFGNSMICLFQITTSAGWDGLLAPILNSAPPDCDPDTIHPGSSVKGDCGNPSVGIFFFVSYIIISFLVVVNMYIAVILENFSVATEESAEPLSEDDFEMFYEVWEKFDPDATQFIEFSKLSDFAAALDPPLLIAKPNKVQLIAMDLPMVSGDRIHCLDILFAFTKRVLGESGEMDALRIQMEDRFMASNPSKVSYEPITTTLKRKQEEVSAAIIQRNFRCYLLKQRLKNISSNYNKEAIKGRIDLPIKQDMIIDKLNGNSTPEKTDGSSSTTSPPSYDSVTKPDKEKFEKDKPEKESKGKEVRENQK
T2 sequence (Q15858 whole entry, looked up): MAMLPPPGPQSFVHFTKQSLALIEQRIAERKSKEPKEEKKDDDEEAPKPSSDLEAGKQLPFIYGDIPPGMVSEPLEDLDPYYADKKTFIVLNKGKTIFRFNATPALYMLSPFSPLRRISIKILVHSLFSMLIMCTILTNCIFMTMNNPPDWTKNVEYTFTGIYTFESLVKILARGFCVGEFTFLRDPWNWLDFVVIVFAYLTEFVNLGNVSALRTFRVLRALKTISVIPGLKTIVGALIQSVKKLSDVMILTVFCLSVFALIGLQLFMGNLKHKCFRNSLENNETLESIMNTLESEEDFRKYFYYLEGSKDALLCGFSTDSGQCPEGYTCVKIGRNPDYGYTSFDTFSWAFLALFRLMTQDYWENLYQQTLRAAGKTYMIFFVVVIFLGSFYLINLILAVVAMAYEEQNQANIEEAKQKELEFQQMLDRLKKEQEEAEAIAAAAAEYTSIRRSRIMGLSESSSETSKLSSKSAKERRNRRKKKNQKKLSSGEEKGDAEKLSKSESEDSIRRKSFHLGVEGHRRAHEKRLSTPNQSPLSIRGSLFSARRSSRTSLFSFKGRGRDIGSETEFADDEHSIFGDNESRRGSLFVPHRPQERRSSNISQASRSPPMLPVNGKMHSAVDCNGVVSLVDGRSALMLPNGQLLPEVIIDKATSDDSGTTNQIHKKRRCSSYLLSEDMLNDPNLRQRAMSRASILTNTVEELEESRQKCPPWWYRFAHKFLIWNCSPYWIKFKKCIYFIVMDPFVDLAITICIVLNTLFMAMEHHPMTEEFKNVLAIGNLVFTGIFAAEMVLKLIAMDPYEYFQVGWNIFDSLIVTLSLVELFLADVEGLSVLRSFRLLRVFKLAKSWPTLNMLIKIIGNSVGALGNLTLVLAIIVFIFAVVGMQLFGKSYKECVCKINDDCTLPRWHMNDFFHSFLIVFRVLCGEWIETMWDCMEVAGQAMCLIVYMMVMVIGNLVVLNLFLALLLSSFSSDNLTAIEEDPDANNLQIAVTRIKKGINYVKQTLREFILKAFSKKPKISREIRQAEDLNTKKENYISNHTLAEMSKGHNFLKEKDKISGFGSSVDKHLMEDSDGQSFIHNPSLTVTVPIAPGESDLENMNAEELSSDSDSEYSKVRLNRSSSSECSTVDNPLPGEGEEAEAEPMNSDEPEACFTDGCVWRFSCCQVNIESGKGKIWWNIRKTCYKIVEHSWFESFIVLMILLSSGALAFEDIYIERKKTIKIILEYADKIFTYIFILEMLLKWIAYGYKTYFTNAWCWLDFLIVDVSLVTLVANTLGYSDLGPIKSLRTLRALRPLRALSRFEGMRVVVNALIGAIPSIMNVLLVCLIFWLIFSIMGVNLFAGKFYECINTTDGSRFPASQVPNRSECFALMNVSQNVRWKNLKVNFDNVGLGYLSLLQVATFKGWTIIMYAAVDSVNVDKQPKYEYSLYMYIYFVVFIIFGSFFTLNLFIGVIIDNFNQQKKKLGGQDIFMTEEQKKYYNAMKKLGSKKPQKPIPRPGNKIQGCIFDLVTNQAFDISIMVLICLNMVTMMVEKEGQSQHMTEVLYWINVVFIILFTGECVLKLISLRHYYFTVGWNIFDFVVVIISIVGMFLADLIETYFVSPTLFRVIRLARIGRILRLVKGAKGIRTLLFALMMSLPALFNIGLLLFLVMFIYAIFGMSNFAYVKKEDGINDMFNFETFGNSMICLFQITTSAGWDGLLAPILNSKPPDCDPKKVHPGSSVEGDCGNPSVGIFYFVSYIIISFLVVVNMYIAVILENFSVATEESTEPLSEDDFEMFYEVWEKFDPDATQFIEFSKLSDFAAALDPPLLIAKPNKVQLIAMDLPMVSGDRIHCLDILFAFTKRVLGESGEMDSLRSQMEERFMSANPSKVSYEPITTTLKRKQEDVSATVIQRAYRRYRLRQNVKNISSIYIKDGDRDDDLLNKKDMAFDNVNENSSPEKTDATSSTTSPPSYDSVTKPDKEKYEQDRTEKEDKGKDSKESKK

Row | Compound | IC50 (hNav1.3 [1]) | IC50 (hNav1.7 [2]) | IC50 (hNav1.3 [3]) | IC50 (hNav1.5 [4]) | IC50 (hNav1.7 [5]) | IC50 (hNav1.5 [6])
1 | CC[C@H](C)[C@@H]1NC(=O)[C@@H]2CSSC[C@@H]3NC(=O)[C@H](C(C)C)NC(=O)[C@H](CC(C)C)NC(=O)[C@H](CC(N)=O)NC(=O)[C@@H]4CCCN4C(=O)[C@H](CCCNC(=N)N)NC(=O)[C@H](CSSC[C@H](NC(=O)[C@@H](N)CC(=O)O)C(=O)N[C@@H](CC(C)C)C(=O)NCC(=O)N[C@@H](C)C(=O)N[C@@H](CCSC)C(=O)N[C@@H](CCCNC(=N)N)C(=O)N[C@@H](CCCCN)C(=O)N2)NC(=O)[C@H](CSSC[C@@H](C(=O)N[C@@H](CCCCN)C(=O)N[C@@H](Cc2ccc(O)cc2)C(=O)N[C@H](C(=O)N[C@@H](Cc2ccccc2)C(N)=O)C(C)C)NC(=O)[C@H](Cc2c[nH]c4ccccc24)NC(=O)[C@H](CCCCN)NC(=O)[C@H](Cc2cnc[nH]2)NC(=O)[C@H](CC(C)C)NC(=O)[C@H](CCCNC(=N)N)NC(=O)[C@H](CO)NC3=O)NC(=O)[C@H](CCCCN)NC(=O)[C@H](CC(=O)O)NC(=O)[C@H](CC(N)=O)NC(=O)[C@H](CC(=O)O)NC(=O)[C@@H]2CCCN2C1=O [[Ala5;Leu26]GpTx-1(1-34)] (H-DCLGAMRKCIPDNDKCCRPNLVCSRLHKWCKYVF-NH2; disulfide 2-17, 9-23, 16-30) | 470 nM | 49 nM | – | – | – | –
2 | CC[C@H](C)[C@@H]1NC(=O)[C@@H]2CSSC[C@@H]3NC(=O)[C@H](C(C)C)NC(=O)[C@H](CC(C)C)NC(=O)[C@H](CC(N)=O)NC(=O)[C@@H]4CCCN4C(=O)[C@H](CCCNC(=N)N)NC(=O)[C@H](CSSC[C@H](NC(=O)[C@@H](N)CC(=O)O)C(=O)N[C@@H](CC(C)C)C(=O)NCC(=O)N[C@@H](C)C(=O)N[C@@H](Cc4ccccc4)C(=O)N[C@@H](CCCNC(=N)N)C(=O)N[C@@H](CCCCN)C(=O)N2)NC(=O)[C@H](CSSC[C@@H](C(=O)N[C@@H](CCCCN)C(=O)N[C@@H](Cc2ccc(O)cc2)C(=O)N[C@H](C(=O)N[C@@H](Cc2ccccc2)C(N)=O)C(C)C)NC(=O)[C@H](Cc2c[nH]c4ccccc24)NC(=O)[C@H](CCCNC(=N)N)NC(=O)[C@H](Cc2cnc[nH]2)NC(=O)[C@H](CC(C)C)NC(=O)[C@H](CCCNC(=N)N)NC(=O)[C@H](CO)NC3=O)NC(=O)[C@H](CCCCN)NC(=O)[C@H](CC(=O)O)NC(=O)[C@H](CC(N)=O)NC(=O)[C@H](CC(=O)O)NC(=O)[C@@H]2CCCN2C1=O [[Ala5;Phe6;Leu26;Arg28]GpTx-1(1-34)] (H-DCLGAFRKCIPDNDKCCRPNLVCSRLHRWCKYVF-NH2; disulfide 2-17, 9-23, 16-30) | 8 nM | 2 nM | – | – | – | –
3 | CC[C@H](C)[C@@H]1NC(=O)[C@@H]2CSSC[C@@H]3NC(=O)[C@H](C(C)C)NC(=O)[C@H](CC(C)C)NC(=O)[C@H](CC(N)=O)NC(=O)[C@@H]4CCCN4C(=O)[C@H](CCCNC(=N)N)NC(=O)[C@H](CSSC[C@H](NC(=O)[C@@H](N)CC(=O)O)C(=O)N[C@@H](CC(C)C)C(=O)NCC(=O)N[C@@H](C)C(=O)N[C@@H](Cc4ccccc4)C(=O)N[C@@H](CCCNC(=N)N)C(=O)N[C@@H](CCCCN)C(=O)N2)NC(=O)[C@H](CSSC[C@@H](C(=O)N[C@@H](CCCCN)C(=O)N[C@@H](Cc2ccc(O)cc2)C(=O)N[C@H](C(=O)N[C@@H](Cc2ccccc2)C(N)=O)C(C)C)NC(=O)[C@H](Cc2c[nH]c4ccccc24)NC(=O)[C@H](CCCCN)NC(=O)[C@H](Cc2cnc[nH]2)NC(=O)[C@H](CC(C)C)NC(=O)[C@H](CCCNC(=N)N)NC(=O)[C@H](CO)NC3=O)NC(=O)[C@H](CCCCN)NC(=O)[C@H](CC(=O)O)NC(=O)[C@H](CC(N)=O)NC(=O)[C@H](CC(=O)O)NC(=O)[C@@H]2CCCN2C1=O [[Ala5;Phe6;Leu26]GpTx-1(1-34)] (H-DCLGAFRKCIPDNDKCCRPNLVCSRLHKWCKYVF-NH2; disulfide 2-17, 9-23, 16-30) | 11 nM | – | – | – | – | –
4 | CC[C@H](C)[C@@H]1NC(=O)[C@@H]2CSSC[C@@H]3NC(=O)[C@H](C(C)C)NC(=O)[C@H](CC(C)C)NC(=O)[C@H](CC(N)=O)NC(=O)[C@@H]4CCCN4C(=O)[C@H](CCCNC(=N)N)NC(=O)[C@H](CSSC[C@H](NC(=O)[C@@H](N)CC(=O)O)C(=O)N[C@@H](CC(C)C)C(=O)NCC(=O)N[C@@H](C)C(=O)N[C@@H](Cc4c[nH]c5ccccc45)C(=O)N[C@@H](CCCNC(=N)N)C(=O)N[C@@H](CCCCN)C(=O)N2)NC(=O)[C@H](CSSC[C@@H](C(=O)N[C@@H](CCCCN)C(=O)N[C@@H](Cc2ccc(O)cc2)C(=O)N[C@H](C(=O)N[C@@H](Cc2ccccc2)C(N)=O)C(C)C)NC(=O)[C@H](Cc2c[nH]c4ccccc24)NC(=O)[C@H](CCCCN)NC(=O)[C@H](Cc2cnc[nH]2)NC(=O)[C@H]([C@@H](C)O)NC(=O)[C@H](CCCNC(=N)N)NC(=O)[C@H](CO)NC3=O)NC(=O)[C@H](CCCCN)NC(=O)[C@H](CC(=O)O)NC(=O)[C@H](CC(N)=O)NC(=O)[C@H](CC(=O)O)NC(=O)[C@@H]2CCCN2C1=O [[Ala5;Trp6]GpTx-1(1-34)] (H-DCLGAWRKCIPDNDKCCRPNLVCSRTHKWCKYVF-NH2; disulfide 2-17, 9-23, 16-30) | 81 nM | 57 nM | – | – | – | –
5 | CC[C@H](C)[C@@H]1NC(=O)[C@@H]2CSSC[C@@H]3NC(=O)[C@H](C(C)C)NC(=O)[C@H](CC(C)C)NC(=O)[C@H](CC(N)=O)NC(=O)[C@@H]4CCCN4C(=O)[C@H](CCC(=O)O)NC(=O)[C@H](CSSC[C@H](NC(=O)[C@@H](N)CC(=O)O)C(=O)N[C@@H](CC(C)C)C(=O)NCC(=O)N[C@@H](Cc4ccccc4)C(=O)N[C@@H](CCSC)C(=O)N[C@@H](CCCNC(=N)N)C(=O)N[C@@H](CCCCN)C(=O)N2)NC(=O)[C@H](CSSC[C@@H](C(=O)N[C@@H](CCCCN)C(=O)N[C@@H](Cc2ccc(O)cc2)C(=O)N[C@H](C(=O)N[C@@H](Cc2ccccc2)C(N)=O)C(C)C)NC(=O)[C@H](Cc2c[nH]c4ccccc24)NC(=O)[C@H](CCCCN)NC(=O)[C@H](Cc2cnc[nH]2)NC(=O)[C@H]([C@@H](C)O)NC(=O)[C@H](CCCNC(=N)N)NC(=O)[C@H](CO)NC3=O)NC(=O)[C@H](CCCCN)NC(=O)[C@H](CC(=O)O)NC(=O)[C@H](CC(N)=O)NC(=O)[C@H](CC(=O)O)NC(=O)[C@@H]2CCCN2C1=O [[Glu18]GpTx-1(1-34)] (H-DCLGFMRKCIPDNDKCCEPNLVCSRTHKWCKYVF-NH2; disulfide 2-17, 9-23, 16-30) | 98 nM | 18 nM | – | – | – | –
6 | CC[C@H](C)[C@@H]1NC(=O)[C@@H]2CSSC[C@@H]3NC(=O)[C@H](C(C)C)NC(=O)[C@H](CC(C)C)NC(=O)[C@H](CC(N)=O)NC(=O)[C@@H]4CCCN4C(=O)[C@H](CCCNC(=N)N)NC(=O)[C@H](CSSC[C@H](NC(=O)[C@@H](N)CC(=O)O)C(=O)N[C@@H](CC(C)C)C(=O)NCC(=O)N[C@@H](Cc4ccccc4)C(=O)N[C@@H](CCSC)C(=O)N[C@@H](CCCNC(=N)N)C(=O)N[C@@H](CCCNC(=NC)NC)C(=O)N2)NC(=O)[C@H](CSSC[C@@H](C(=O)N[C@@H](CCCCN)C(=O)N[C@@H](Cc2ccc(O)cc2)C(=O)N[C@H](C(=O)N[C@@H](Cc2ccccc2)C(N)=O)C(C)C)NC(=O)[C@H](Cc2c[nH]c4ccccc24)NC(=O)[C@H](CCCCN)NC(=O)[C@H](Cc2c[nH]cn2)NC(=O)[C@H]([C@@H](C)O)NC(=O)[C@H](CCCNC(=N)N)NC(=O)[C@H](CO)NC3=O)NC(=O)[C@H](CCCCN)NC(=O)[C@H](CC(=O)O)NC(=O)[C@H](CC(N)=O)NC(=O)[C@H](CC(=O)O)NC(=O)[C@@H]2CCCN2C1=O [[SDMA8]GpTx-1(1-34)] (H-DCLGFMR[Arg(Me2s)]CIPDNDKCCRPNLVCSRTHKWCKYVF-NH2; disulfide 2-17, 9-23, 16-30) | – | 5 nM | 200 nM | > 10000 nM | 200 nM | 9050 nM
7 | CC[C@H](C)[C@@H]1NC(=O)[C@@H]2CSSC[C@@H]3NC(=O)[C@H](C(C)C)NC(=O)[C@H](CC(C)C)NC(=O)[C@H](CC(N)=O)NC(=O)[C@@H]4CCCN4C(=O)[C@H](CCCNC(=N)N)NC(=O)[C@H](CSSC[C@H](NC(=O)[C@@H](N)CC(=O)O)C(=O)N[C@@H](CC(C)C)C(=O)NCC(=O)N[C@@H](Cc4ccccc4)C(=O)N[C@@H](CCSC)C(=O)N[C@@H](CCCNC(=N)N)C(=O)N[C@@H]([C@@H](C)O)C(=O)N2)NC(=O)[C@H](CSSC[C@@H](C(=O)N[C@@H](CCCCN)C(=O)N[C@@H](Cc2ccc(O)cc2)C(=O)N[C@H](C(=O)N[C@@H](Cc2ccccc2)C(N)=O)C(C)C)NC(=O)[C@H](Cc2c[nH]c4ccccc24)NC(=O)[C@H](CCCCN)NC(=O)[C@H](Cc2c[nH]cn2)NC(=O)[C@H]([C@@H](C)O)NC(=O)[C@H](CCCNC(=N)N)NC(=O)[C@H](CO)NC3=O)NC(=O)[C@H](CCCCN)NC(=O)[C@H](CC(=O)O)NC(=O)[C@H](CC(N)=O)NC(=O)[C@H](CC(=O)O)NC(=O)[C@@H]2CCCN2C1=O [[Thr8]GpTx-1(1-34)] (H-DCLGFMRTCIPDNDKCCRPNLVCSRTHKWCKYVF-NH2; disulfide 2-17, 9-23, 16-30) | – | 9 nM | 150 nM | > 10000 nM | 350 nM | 9860 nM
